Data as given in patent US20220133884A1, “COMPOUNDS USEFUL AS ADJUVANTS” (MILLENNIUM PHARMACEUTICALS, INC., priority 2019, published 2022).

What was measured:
B16F10-OVA tumors = experiment: Study 3: prophylactic vaccination and B16F10-OVA tumor challenge; format: in vivo, C57BL/6 mice; conditions: SC pre-treatment Day -14 to Day -4, tumor challenge Day 0; Ovalbumin 100 ug QWx2, Compound I-263a 15 mg/kg BIWx2, poly (I:C) 50 ug BIWx2; FIG. 5A/5B
Procedure: The goal of this study was to evaluate the prophylactic effects of OVA+Compound 1-263a vaccination in mice challenged with tumors expressing the OVA antigen (B16F10-OVA). The B16F10-OVA cell line was generated in-house by stable integration of the chicken ovalbumin gene into the Rosa26 locus. Eight to ten-week-old female C57BL/6 mice (Jackson Labs, Bar Harbor, Me.) were injected with one of the formulations shown in Table 5 subcutaneously (SC) near the nape. All mice were subsequently challenged on Day 0 with 0.3e6 B16F10-OVA tumor cells/mouse subcutaneously (n=16 mice/group, except group 5 (ovalbumin+Compound 1-263a) for which n=15). Tumor growth was measured every 2-3 days using digital calipers and tumor volume was calculated as: L×W×(W/2).

T cells and NK cells = experiment: Study 1: early lymphocyte activation marker CD69 on T cells and NK cells in lymph nodes (flow cytometry); format: in vivo, Balb/c mice; conditions: ~18 hours post subcutaneous injection, Compound I-263a 7.5 mg/kg, CpG 2.5 mg/kg
Procedure: (§1) Unless otherwise stated, immune cell profiling was performed using flow cytometry on a BD (Beckton Dickinson) LSRII Fortessa.
(§2) The goal of this study was to investigate the in vivo effects of Compound I-263a alone or in combination with a TLR9 agonist (CpG) with respect to the recruitment and activation of innate immune cells at regional draining lymph nodes (LNs). On day 0 in the evening, eight to ten week old female Balb/c mice (Jackson Labs, Bar Harbor, Me.) were injected subcutaneously bilaterally close to the two brachial LNs (50 μL each side) with one of the formulations shown in Table 1 (n=5 mice per group). On day 1 (˜18 hours post injection) the mice were euthanized. The inflamed brachial LNs as well as the distal non-inflamed inguinal LNs were harvested from each mouse individually. Single cell suspensions were generated by homogenizing the LNs on a 70μ cell strainer using 3 mL syringe plungers, followed by wash with FACS staining buffer (BD Biosciences, Cat #554657). The cell pellet was re-suspended in 100 μL of FACS buffer for staining on a 96-well U-bottom tissue culture plate (Corning). Each sample was stained using the flow cytometry panel (see Table 2 below) of antibodies followed by acquisition and analysis on BD LSRII Fortessa. For positive controls, 1 drop of ultracomp beads (Invitrogen, Cat #01-2222-42) were stained with 1 μL of the respective antibodies.

[1] = tested on: dendritic cells (CD11c+ cells); experiment: Study 1: activation of dendritic cells in lymph nodes after subcutaneous injection (flow cytometry); format: in vivo, Balb/c mice; conditions: ~18 hours post subcutaneous injection near brachial LNs, relative to vehicle treated mice
Procedure: as §1, §2

Row | Molecule | growth of B16-F10 tumors expressing OVA (tumor protection) (B16F10-OVA tumors) | early lymphocyte activation marker CD69 on T cells in the brachial LNs (T cells and NK cells; FIG. 2a) | early lymphocyte activation marker CD69 on NK cells in the brachial LNs (T cells and NK cells; FIG. 2b) | expression of marker CD86 on CD11c+ cells in the distal inguinal LNs ([1]; 7.5 mg/kg, FIG. 1b) | expression of marker CD40 on CD11c+ cells in the brachial LNs ([1]; Compound I-263a 7.5 mg/kg, CpG 2.5 mg/kg, FIG. 1a) | expression of marker CD86 on CD11c+ cells in the brachial LNs ([1]; Compound I-263a 7.5 mg/kg, CpG 2.5 mg/kg, FIG. 1b)
1 | Cc1sc(C(=O)c2cncnc2N[C@@H]2C[C@H](COS(N)(=O)=O)[C@@H](O)C2)cc1[C@@H]1NCCc2ccc(Cl)cc21 [Compound I-263a, [(1R,2S,4R)-4-{[5-({4-[(1R)-7-chloro-1,2,3,4-tetrahydroisoquinolin-1-yl]-5-methyl-2-thienyl}carbonyl)pyrimidin-4-yl]amino}-2-hydroxycyclopentyl]methyl sulfamate] | did not confer tumor protection | changes in the early lymphocyte activation marker CD69 were observed | changes in the early lymphocyte activation marker CD69 were observed | but not in the distal inguinal LNs | increases | increases
2 | OVA: chicken ovalbumin protein antigen, EndoFit Ovalbumin, InvivoGen (protein, UniProt P01012 2-386, looked up) Ovalbumin: GSIGAASMEFCFDVFKELKVHHANENIFYCPIAIMSALAMVYLGAKDSTRTQINKVVRFDKLPGFGDSIEAQCGTSVNVHSSLRDILNQITKPNDVYSFSLASRLYAEERYPILPEYLQCVKELYRGGLEPINFQTAADQARELINSWVESQTNGIIRNVLQPSSVDSQTAMVLVNAIVFKGLWEKAFKDEDTQAMPFRVTEQESKPVQMMYQIGLFRVASMASEKMKILELPFASGTMSMLVLLPDEVSGLEQLESIINFEKLTEWTSSNVMEERKIKVYLPRMKMEEKYNLTSVLMAMGITDVFSSSANLSGISSAESLKISQAVHAAHAEINEAGREVVGSAEAGVDAASVSEEFRADHPFLFCIKHIATNAVLFFGRCVSP | did not confer tumor protection | – | – | – | – | –
